# Results from BindingDB's records for doi:10.1021/jm00111a037 (University of Tokushima, 1991).
# Assay: Inhibition of arachidonate 5-lipoxygenase purified from porcine leukocytes.
row,Compound,IC50 [nM]
1,CCCCCCCCCCc1c(-c2ccc(O)c(O)c2)oc2c(OC)c(OC)cc(O)c2c1=O,135
2,CCCCCCOc1c(-c2ccc(O)c(O)c2)oc2c(OC)c(OC)cc(OC)c2c1=O,88
3,CCCCCCOc1c(-c2ccc(O)c(O)c2)oc2cc(OC)c(OC)c(OC)c2c1=O,126
4,CCCCCCc1c(-c2ccc(O)c(O)c2)oc2cc(OC)c(OC)c(=O)c-2c1O,110
5,CCCCCCCCc1c(-c2ccc(O)c(O)c2)oc2c(OC)c(OC)cc(OC)c2c1=O,62
6,CCCCCCCCCCCCc1c(-c2ccc(O)c(O)c2)oc2c(OC)c(OC)cc(OC)c2c1=O,105

# The next lines start with the values.
row,IC50 [nM],Compound
1,115,CCCCCCCCCCCCCCc1c(-c2ccc(O)c(O)c2)oc2c(OC)c(OC)cc(OC)c2c1=O
2,870,CCCCCCCCCCCCCCc1c(-c2ccc(O)c(O)c2)oc2cc(OC)c(OC)c(=O)c-2c1O
3,280,CCCCCCOc1c(OC)c(OC)cc2oc(-c3ccc(O)c(O)c3)c(OC)c(=O)c12
4,500,CCCCCCCCCCCCCCCCc1c(-c2ccc(O)c(O)c2)oc2c(OC)c(OC)cc(OC)c2c1=O
5,1350,CCCCCCOc1c(OC)c(OC)cc2oc(-c3ccc(O)c(O)c3)c(O)c(=O)c12
6,770,CCCCCCOc1cc(OC)c(OC)c2oc(-c3ccc(O)c(O)c3)c(O)c(=O)c12
7,950,CCCCCCCCCCCCCCCCc1c(-c2ccc(O)c(O)c2)oc2cc(OC)c(OC)c(OC)c2c1=O
8,300,COc1cc(O)c2c(=O)c(C)c(-c3ccc(O)c(O)c3)oc2c1OC
9,1250,CCCCCCCCCCCCCCCCc1c(-c2ccc(O)c(O)c2)oc2cc(OC)c(OC)c(=O)c-2c1O
10,86,CCCCCCCCCCc1c(-c2ccc(O)c(O)c2)oc2c(OC)c(OC)cc(OC)c2c1=O
11,265,CCCCc1c(-c2ccc(O)c(O)c2)oc2cc(OC)c(OC)c(=O)c-2c1O
12,1500,CCCCCCCCCCCCCCCCc1c(-c2ccc(O)c(O)c2)oc2c(OC)c(OC)cc(O)c2c1=O
13,480,COc1cc2oc(-c3ccc(O)c(O)c3)c(C)c(=O)c2c(O)c1OC
14,100,CCCCc1c(-c2ccc(O)c(O)c2)oc2c(OC)c(OC)cc(OC)c2c1=O
15,58,CCCCCCc1c(-c2ccc(O)c(O)c2)oc2c(OC)c(OC)cc(OC)c2c1=O

# Assay: The compound was tested for the inhibition of Arachidonate 5-lipoxygenase purified from porcine leukocytes.
row,IC50 [nM],Compound
1,175,CCCCCCCCCCCCc1c(-c2ccc(O)c(O)c2)oc2cc(OC)c(OC)c(OC)c2c1=O
2,240,CCCCCCCCCCCCCCc1c(-c2ccc(O)c(O)c2)oc2cc(OC)c(OC)c(OC)c2c1=O
3,340,CCCCCCCCCCCCc1c(-c2ccc(O)c(O)c2)oc2c(OC)c(OC)cc(O)c2c1=O
4,190,CCCCCCCCCCc1c(-c2ccc(O)c(O)c2)oc2cc(OC)c(OC)c(OC)c2c1=O
5,210,CCCCCCCCCCCCc1c(-c2ccc(O)c(O)c2)oc2cc(OC)c(OC)c(=O)c-2c1O
6,250,CCCCCCCCc1c(-c2ccc(O)c(O)c2)oc2cc(OC)c(OC)c(OC)c2c1=O
7,500,CCCCCCCCCCCCCCc1c(-c2ccc(O)c(O)c2)oc2c(OC)c(OC)cc(O)c2c1=O
